Laboratory results from US11590109B2 (priority 2016, dated 2023).

Assays:
[1] = Determination of TC50 (half toxicity concentration) in RD cells; format: cell-based; conditions: human, host cell RD, EV71 table
H7N9 (influenza virus) [2] = conditions: H7N9 in host cell MDCK
[3] = system: Dengue Virus 2 (type 2 dengue virus); assay: Inhibition of viral replication (CPE) at cellular level, Dengue Virus 2 in Vero; format: cell-based; conditions: Dengue Virus 2 in host cell Vero
Description: Activity Test for Inhibition of Viral Replication at Cellular Level […]
The present inventors tested inhibitory effects of the compound of the present invention on cytopathic effects (CPE) caused by viral infection on mammalian cells.
Half-inhibitory concentration IC50 and half toxic concentration TC50 of the compound against Dengue Virus 2 (type 2 dengue virus) in host cell Vero (African green monkey kidney cell).

[4] = system: EV71 (hand-foot-and-mouth virus); assay: microbe, parasite or virus in culture; conditions: Enterovirus A
H7N9 (influenza virus) [5] = assay: microbe, parasite or virus in culture; conditions: Influenza A virus, H7N9, MDCK
[6] = system: H7N9 avian influenza virus; format: in vivo; conditions: lethal dose H7N9 (1MLD50) nasal, Compound 16 10 mg/kg, Oseltamivir 20 mg/kg, intraperitoneal, once a day for first 5 days, FIG. 4
in vitro [7] = conditions: dog
in vitro [8] = conditions: African green monkey, TC50, host cell Vero
influenza virus = assay: microbe, parasite or virus in culture; format: cell-based; conditions: unidentified influenza virus, MDCK, read-out: inhibitory effect on influenza virus
H3N2 (influenza virus) [9] = conditions: H3N2 in host cell MDCK
[10] = system: RSV (human respiratory syncytial virus); assay: Inhibition of viral replication (CPE) at cellular level, RSV in Vero
H1N1 (influenza virus) [11] = conditions: H1N1 in host cell MDCK
Zika Virus = assay: Inhibition of viral replication (CPE) at cellular level, Zika Virus in Vero
[12] = system: EV71 (hand-foot-and-mouth virus); conditions: EV71 in host cell RD
H3N2 (influenza virus) [13] = assay: microbe, parasite or virus in culture; conditions: Influenza A virus, H3N2, MDCK
H1N1 (influenza virus) [14] = assay: microbe, parasite or virus in culture; conditions: Influenza A virus, H1N1, MDCK
[15] = system: JEV (Japanese encephalitis virus); assay: Inhibition of viral replication (CPE) at cellular level, JEV in Vero

O=C(O)c1ccccc1/C=N/Nc1nc(-c2ccccc2Cl)cs1 [Compound 16, (E)-4-(2-chlorophenyl)-2-(2-carboxybenzylidenehydrazino)thiazole]
CC50 [1]: 1000 nM
SI (TC50/IC50) (H7N9 (influenza virus) [2]): >41.7
SI (TC50/IC50) [3]: 167
IC50 ([3]; CPE): 120 nM
IC50 [4]: 300 nM
IC50 (H7N9 (influenza virus) [5]): 1200 nM
therapeutic effect, recovery in the body weight of infected mice [6]: therapeutic effects similar to the positive drug Oseltamivir
CC50 (in vitro [7]): > 50000 nM
CC50 (in vitro [8]; Dengue Virus 2 table): 20000 nM
CC50 (in vitro [8]; RSV table): 20000 nM
CC50 (in vitro [8]; Zika Virus table): 20000 nM
IC50 (influenza virus): ~2000 nM
SI (TC50/IC50) (H3N2 (influenza virus) [9]): >250
inhibitory effects on human respiratory syncytial virus RSV ([10]; FIG. 3): a certain inhibitory effects
SI (TC50/IC50) ([10]; RSV in host cell Vero): 4
IC50 ([10]; human respiratory syncytial virus, Vero): 5000 nM
SI (TC50/IC50) (H1N1 (influenza virus) [11]): >100
SI (TC50/IC50) (Zika Virus; Zika Virus in host cell Vero): 133
IC50 (Zika Virus; Zika virus, Vero): 150 nM
SI (TC50/IC50) [12]: 3.3
IC50 (H3N2 (influenza virus) [13]): 200 nM
IC50 (H1N1 (influenza virus) [14]): 500 nM
SI (TC50/IC50) ([15]; JEV in host cell Vero): 100
IC50 ([15]; Japanese encephalitis virus, Vero): 200 nM
